Assay results reported in PubChem BioAssay (NCI).
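Compound exposure: 48 hours, 5 concentrations, 96-well plates. GI50 = concentration required for 50% inhibition of growth. TGI: total growth inhibition.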

Legend:
Test in all cases: DTP human tumour cell line panel, 48 h
786-0 renal = tested on: 786-0 renal
A498 renal = tested on: A498 renal
A549 NSCLC = tested on: A549 NSCLC
ACHN renal = tested on: ACHN renal
BT-549 breast = tested on: BT-549 breast
CAKI-1 renal = tested on: CAKI-1 renal
CCRF-CEM leukemia = tested on: CCRF-CEM leukemia
DU-145 prostate = tested on: DU-145 prostate
EKVX NSCLC = tested on: EKVX NSCLC
HCC-2998 colon = tested on: HCC-2998 colon
HCT-116 colon = tested on: HCT-116 colon
HCT-15 colon = tested on: HCT-15 colon
HL-60(TB) leukemia = tested on: HL-60(TB) leukemia
HOP-62 NSCLC = tested on: HOP-62 NSCLC
HOP-92 NSCLC = tested on: HOP-92 NSCLC
HS 578T breast = tested on: HS 578T breast
IGROV1 ovarian = tested on: IGROV1 ovarian
K-562 leukemia = tested on: K-562 leukemia
KM12 colon = tested on: KM12 colon
LOX IMVI melanoma = tested on: LOX IMVI melanoma
M14 melanoma = tested on: M14 melanoma
MALME-3M melanoma = tested on: MALME-3M melanoma
MCF7 breast = tested on: MCF7 breast
MDA-MB-231 breast = tested on: MDA-MB-231 breast
MDA-MB-435 = tested on: MDA-MB-435
MOLT-4 leukemia = tested on: MOLT-4 leukemia
NCI-H226 lung = tested on: NCI-H226 lung
NCI-H23 lung = tested on: NCI-H23 lung
NCI-H460 lung = tested on: NCI-H460 lung
NCI-H522 lung = tested on: NCI-H522 lung
NCI/ADR-RES ovarian = tested on: NCI/ADR-RES ovarian
OVCAR-3 ovarian = tested on: OVCAR-3 ovarian
OVCAR-4 ovarian = tested on: OVCAR-4 ovarian
OVCAR-5 ovarian = tested on: OVCAR-5 ovarian
OVCAR-8 ovarian = tested on: OVCAR-8 ovarian
PC-3 prostate = tested on: PC-3 prostate
RPMI-8226 leukemia = tested on: RPMI-8226 leukemia
RXF 393 renal = tested on: RXF 393 renal
SF-268 CNS = tested on: SF-268 CNS
SF-295 CNS = tested on: SF-295 CNS
SF-539 CNS = tested on: SF-539 CNS
SK-MEL-2 melanoma = tested on: SK-MEL-2 melanoma
SK-MEL-5 melanoma = tested on: SK-MEL-5 melanoma
SN12C renal = tested on: SN12C renal
SR leukemia = tested on: SR leukemia
SW-620 colon = tested on: SW-620 colon
TK-10 renal = tested on: TK-10 renal
U251 CNS = tested on: U251 CNS
UACC-257 melanoma = tested on: UACC-257 melanoma
UACC-62 melanoma = tested on: UACC-62 melanoma
UO-31 renal = tested on: UO-31 renal
SK-MEL-28 melanoma = tested on: SK-MEL-28 melanoma
SK-OV-3 ovarian = tested on: SK-OV-3 ovarian
SNB-75 CNS = tested on: SNB-75 CNS

Cc1ccc(C2=C(c3ccccc3)C(c3ccccc3)Oc3ccc(C)cc32)cc1 (stereo unspecified)
GI50 (786-0 renal): 2.17 µM
TGI (786-0 renal): 4.74 µM
GI50 (A498 renal): 1.56 µM
TGI (A498 renal): 5.32 µM
GI50 (A549 NSCLC): 3.87 µM
TGI (A549 NSCLC): 10.7 µM
GI50 (ACHN renal): 16.6 µM
TGI (ACHN renal): 31.2 µM
GI50 (BT-549 breast): 4.76 µM
TGI (BT-549 breast): 20.4 µM
GI50 (CAKI-1 renal): 12.7 µM
TGI (CAKI-1 renal): 31.4 µM
GI50 (CCRF-CEM leukemia): 13.8 µM
TGI (CCRF-CEM leukemia): 39 µM
GI50 (DU-145 prostate): 3.56 µM
TGI (DU-145 prostate): 12.5 µM
GI50 (EKVX NSCLC): 3.2 µM
TGI (EKVX NSCLC): 12.8 µM
GI50 (HCC-2998 colon): 1.64 µM
TGI (HCC-2998 colon): 3.1 µM
GI50 (HCT-116 colon): 1.68 µM
TGI (HCT-116 colon): 3.43 µM
GI50 (HCT-15 colon): 16.9 µM
TGI (HCT-15 colon): 35.8 µM
GI50 (HL-60(TB) leukemia): 11 µM
TGI (HL-60(TB) leukemia): 40.7 µM
GI50 (HOP-62 NSCLC): 3.09 µM
TGI (HOP-62 NSCLC): 7.71 µM
GI50 (HOP-92 NSCLC): 11.4 µM
TGI (HOP-92 NSCLC): 28.1 µM
GI50 (HS 578T breast): 2.74 µM
TGI (HS 578T breast): 10.1 µM
GI50 (IGROV1 ovarian): 2.49 µM
TGI (IGROV1 ovarian): 7.1 µM
GI50 (K-562 leukemia): 8.29 µM
TGI (K-562 leukemia): 42.7 µM
GI50 (KM12 colon): 5.5 µM
TGI (KM12 colon): 23.6 µM
GI50 (LOX IMVI melanoma): 13.8 µM
TGI (LOX IMVI melanoma): 32 µM
GI50 (M14 melanoma): 1.56 µM
TGI (M14 melanoma): 3.05 µM
GI50 (MALME-3M melanoma): 23.1 µM
TGI (MALME-3M melanoma): 48.3 µM
GI50 (MCF7 breast): 3.33 µM
TGI (MCF7 breast): 13.1 µM
GI50 (MDA-MB-231 breast): 13 µM
TGI (MDA-MB-231 breast): 30.5 µM
GI50 (MDA-MB-435): 8.5 µM
TGI (MDA-MB-435): 26.8 µM
GI50 (MOLT-4 leukemia): 8.86 µM
TGI (MOLT-4 leukemia): 31.5 µM
GI50 (NCI-H226 lung): 15.8 µM
TGI (NCI-H226 lung): 37.9 µM
GI50 (NCI-H23 lung): 2.2 µM
TGI (NCI-H23 lung): 5.53 µM
GI50 (NCI-H460 lung): 7.1 µM
TGI (NCI-H460 lung): 39.9 µM
GI50 (NCI-H522 lung): 2.28 µM
TGI (NCI-H522 lung): 5.63 µM
GI50 (NCI/ADR-RES ovarian): 2.18 µM
TGI (NCI/ADR-RES ovarian): 5.35 µM
GI50 (OVCAR-3 ovarian): 12.4 µM
TGI (OVCAR-3 ovarian): 32.7 µM
GI50 (OVCAR-4 ovarian): 2.27 µM
TGI (OVCAR-4 ovarian): 7.44 µM
GI50 (OVCAR-5 ovarian): 2.87 µM
TGI (OVCAR-5 ovarian): 8.64 µM
GI50 (OVCAR-8 ovarian): 6.92 µM
TGI (OVCAR-8 ovarian): 26.7 µM
GI50 (PC-3 prostate): 12.8 µM
TGI (PC-3 prostate): 34.4 µM
GI50 (RPMI-8226 leukemia): 6.97 µM
TGI (RPMI-8226 leukemia): 41.3 µM
GI50 (RXF 393 renal): 3.37 µM
TGI (RXF 393 renal): 13.3 µM
GI50 (SF-268 CNS): 13.2 µM
TGI (SF-268 CNS): 38.7 µM
GI50 (SF-295 CNS): 3.66 µM
TGI (SF-295 CNS): 13.8 µM
GI50 (SF-539 CNS): 6.29 µM
TGI (SF-539 CNS): 20 µM
GI50 (SK-MEL-2 melanoma): 1.9 µM
TGI (SK-MEL-2 melanoma): 3.98 µM
GI50 (SK-MEL-5 melanoma): 1.92 µM
TGI (SK-MEL-5 melanoma): 3.63 µM
GI50 (SN12C renal): 17.3 µM
TGI (SN12C renal): 34.3 µM
GI50 (SR leukemia): 16.5 µM
TGI (SR leukemia): 38.4 µM
GI50 (SW-620 colon): 3.79 µM
TGI (SW-620 colon): 13.2 µM
GI50 (TK-10 renal): 13.7 µM
TGI (TK-10 renal): 32.4 µM
GI50 (U251 CNS): 14.8 µM
TGI (U251 CNS): 28.5 µM
GI50 (UACC-257 melanoma): 9.2 µM
TGI (UACC-257 melanoma): 23.7 µM
GI50 (UACC-62 melanoma): 10 µM
TGI (UACC-62 melanoma): 22.8 µM
GI50 (UO-31 renal): 4.37 µM
TGI (UO-31 renal): 17 µM

CCCCc1n(Cc2ccc3ccccc3c2)cc[n+]1Cc1ccc2ccccc2c1
GI50 (786-0 renal): 1.52 µM
TGI (786-0 renal): 2.97 µM
GI50 (ACHN renal): 1.97 µM
TGI (ACHN renal): 4.19 µM
GI50 (CCRF-CEM leukemia): 1.52 µM
TGI (CCRF-CEM leukemia): 4.03 µM
GI50 (DU-145 prostate): 1.41 µM
TGI (DU-145 prostate): 2.83 µM
GI50 (HCT-116 colon): 0.663 µM
TGI (HCT-116 colon): 2.08 µM
GI50 (IGROV1 ovarian): 0.732 µM
TGI (IGROV1 ovarian): 2.26 µM
GI50 (MALME-3M melanoma): 1.18 µM
TGI (MALME-3M melanoma): 2.64 µM
GI50 (MDA-MB-231 breast): 1.31 µM
TGI (MDA-MB-231 breast): 2.77 µM
GI50 (MDA-MB-435): 1.02 µM
TGI (MDA-MB-435): 2.26 µM
GI50 (MOLT-4 leukemia): 1.39 µM
TGI (MOLT-4 leukemia): 3.4 µM
GI50 (NCI-H23 lung): 0.793 µM
TGI (NCI-H23 lung): 2.31 µM
GI50 (NCI/ADR-RES ovarian): 15.8 µM
TGI (NCI/ADR-RES ovarian): 39.8 µM
GI50 (OVCAR-5 ovarian): 1.28 µM
TGI (OVCAR-5 ovarian): 2.63 µM
GI50 (PC-3 prostate): 1.11 µM
TGI (PC-3 prostate): 2.53 µM
GI50 (RXF 393 renal): 1.19 µM
TGI (RXF 393 renal): 2.49 µM
GI50 (SF-295 CNS): 1.3 µM
TGI (SF-295 CNS): 2.65 µM
GI50 (SF-539 CNS): 1.4 µM
TGI (SF-539 CNS): 2.74 µM
GI50 (SK-MEL-28 melanoma): 1.32 µM
TGI (SK-MEL-28 melanoma): 2.69 µM
GI50 (SK-MEL-5 melanoma): 0.612 µM
TGI (SK-MEL-5 melanoma): 1.86 µM
GI50 (SK-OV-3 ovarian): 1.38 µM
TGI (SK-OV-3 ovarian): 2.75 µM
GI50 (SN12C renal): 1.09 µM
TGI (SN12C renal): 2.43 µM
GI50 (SNB-75 CNS): 0.908 µM
TGI (SNB-75 CNS): 2.4 µM
GI50 (SW-620 colon): 1.2 µM
TGI (SW-620 colon): 2.77 µM
GI50 (TK-10 renal): 1.37 µM
TGI (TK-10 renal): 2.76 µM
GI50 (UACC-257 melanoma): 1.04 µM
TGI (UACC-257 melanoma): 2.32 µM
GI50 (UACC-62 melanoma): 0.705 µM
TGI (UACC-62 melanoma): 2.08 µM
GI50 (UO-31 renal): 1.45 µM
TGI (UO-31 renal): 2.96 µM
